Results from patent US20230331675A1, “AROMATIC ETHYLENE COMPOUND AND PREPARATION METHOD THEREFOR, AND INTERMEDIATE, PHARMACEUTICAL COMPOSITION, AND APPLICATION THEREOF” (GUANGZHOU MAXINOVEL PHARMACEUTICALS CO., LTD., priority 2020, published 2023).

Biological target: PD-1/PD-L1 (Homo sapiens (Human), UniProt Q9NZQ7)
Assay: Homogeneous time-resolved fluorescence (HTRF) binding assay
Details: CisBio kit, read-out: IC50 of compounds binding to PD-1/PD-L1
From the text: Effect embodiment 1: Homogenouse time-resolved fluorescence
Homogeneous time-resolved fluorescence (HTRF) binding assay was used to determine the binding ability of the compound of the present disclosure to PD-1/PD-L1.
The purchased kit (CisBio, #64CUS000C-1) contained reagents required for assays such as PD-1, PD-L1, anti-tag1-Eu, Anti-tag2-XL665, dilute buffer, and detection buffer.
1. The compound was formulated to 10 concentrations with a 3-fold gradient with 100% DMSO.
2. The DMSO solution of the compound was added to the dilute buffer, mixed thoroughly, then transferred to a 96-well plate.
3. PD-L1 was diluted with dilute buffer, then added to the above 96-well plate.
4. PD-1 was diluted with dilute buffer and added to the above 96-well plate, which was then incubated at room temperature for 30 minutes.
5. A portion of anti-tag1-Eu and a portion of anti-tag2-XL665 were added to the detection buffer, mixed thoroughly and transferred to the above 96-well plate.
6. The mixture in the above 96-well plate was incubated at room temperature for 1 to 24 hours.
7. HTRF values were read with Envision.

PD-1/PD-L1, sequence (Q9NZQ7 19-238): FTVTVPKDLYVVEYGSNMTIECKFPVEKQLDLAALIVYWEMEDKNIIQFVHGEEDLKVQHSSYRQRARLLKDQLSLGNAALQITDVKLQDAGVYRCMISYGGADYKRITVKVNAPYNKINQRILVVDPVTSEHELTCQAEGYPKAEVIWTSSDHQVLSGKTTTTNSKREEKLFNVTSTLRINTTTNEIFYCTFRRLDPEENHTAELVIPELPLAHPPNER

Row | IC50 | SMILES
1 | 3.58 nM | Cc1c(/C=C/c2cc(OCCCF)c(CN3CCCC[C@H]3C(=O)O)cc2C(F)(F)F)cccc1-c1ccccc1 [Compound 86, (S,E)-1-(2-(3-Fluoropropoxy)-4-(2-(2-methyl-[1,1′-biphenyl]-3-yl)vinyl)-5-(trifluoromethyl)benzyl)piperidine-2-carboxylic acid]
2 | > 10000 nM | N#CCOc1cc(/C=C/c2cccc(-c3ccccc3)c2C#N)c(CN2CCCC[C@H]2C(=O)O)cc1Cl [Compound 47, (S,E)-1-(5-Chloro-2-(2-(2-cyano-[1,1′-biphenyl]-3-yl)vinyl)-4-(cyanomethoxy)benzyl)piperidine-2-carboxylic acid]
3 | 3.97 nM | Cc1c(/C=C/c2cc(OCc3cc(I)ccn3)c(CN3CCCC[C@H]3C(=O)O)cc2C(F)(F)F)cccc1-c1ccccc1 [Compound 80, (S,E)-1-(2-((4-Iodopyridin-2-yl)methoxy)-4-(2-(2-methyl-[1,1′-biphenyl]-3-yl)vinyl)-5-(trifluoromethyl)benzyl)piperidine-2-carboxylic acid]
4 | 8 nM | Cc1cc(CN2CCCC[C@H]2C(=O)O)c(OCC#N)cc1/C=C/c1cccc(-c2ccccc2)c1C#N [Compound 48, (S,E)-1-(4-(2-(2-Cyano-[1,1′-biphenyl]-3-yl)vinyl)-2-(cyanomethoxy)-5-methylbenzyl)piperidine-2-carboxylic acid]
5 | 265 nM | COCCOc1cc(C)c(/C=C/c2cccc(-c3ccccc3)c2C#N)cc1CN1CCOC[C@H]1C(=O)O [Compound 44, (S,E)-4-(5-(2-(2-Cyano-[1,1′-biphenyl]-3-yl)vinyl)-2-(2-methoxyethoxy)-4-methylbenzyl)morpholine-3-carboxylic acid]
6 | 260 nM | COc1cc(/C=C(\Br)c2cccc(-c3ccccc3)c2C)c(C)cc1CNCCO [Compound 69, (Z)-2-((4-(2-Bromo-2-(2-methyl-[1,1′-biphenyl]-3-yl)vinyl)-2-methoxy-5-methylbenzyl)amino)-1-ethanol]
7 | 48 nM | COc1cc(/C(F)=C/c2cccc(-c3ccccc3)c2C)c(C(F)(F)F)cc1CNCCO [Compound 65, (Z)-2-((4-(1-Fluoro-2-(2-methyl-[1,1′-biphenyl]-3-yl)vinyl)-2-methoxy-5-trifluoromethylbenzyl)amino)-1-ethanol]
8 | 29.5 nM | COc1cc(/C(F)=C/c2cccc(-c3ccccc3)c2C)c(C(F)(F)F)cc1CN1CCCC[C@H]1C(=O)O [Compound 64, (S,Z)-1-(4-(1-Fluoro-2-(2-methyl-[1,1′-biphenyl]-3-yl)vinyl)2-methoxy-5-trifluoromethylbenzyl)piperidine-2-carboxylic acid]
9 | 141 nM | COCc1cc(/C=C/c2cccc(-c3ccccc3)c2C#N)c(C(F)(F)F)cc1CN1CCOC[C@H]1C(=O)O [Compound 50, (S,E)-4-(4-(2-(2-Cyano-[1,1′-biphenyl]-3-yl)vinyl)-2-(methoxymethyl)-5-trifluoromethylbenzyl)morpholine-3-carboxylic acid]
10 | 30.5 nM | COc1cc(CN2CCCC[C@H]2C(=O)O)c(OC)cc1/C=C/c1cccc(-c2ccccc2)c1C [Compound 63, (S,E)-1-(2,5-Dimethoxy-4-(2-(2-methyl-[1,1′-biphenyl]-3-yl)vinyl)benzyl)piperidine-2-carboxylic acid]

Further lines, the molecule ahead of its results:

Row | SMILES | IC50
11 | Cc1c(/C=C/c2cc(OCc3ccnc(I)c3)c(CN3CCCC[C@H]3C(=O)O)cc2C(F)(F)F)cccc1-c1ccccc1 [Compound 81, (S,E)-1-(2-((2-Iodopyridin-4-yl)methoxy)-4-(2-(2-methyl-[1,1′-biphenyl]-3-yl)vinyl)-5-(trifluoromethyl)benzyl)piperidine-2-carboxylic acid] | 2.13 nM
12 | Cc1cc(/C=C/c2cccc(-c3ccccc3)c2C)c(Cl)cc1CN1CCCC[C@H]1C(=O)O [Compound 5, (S,E)-1-(5-Chloro-2-methyl-4-(2-(2-methyl-[1,1′-biphenyl]-3-yl)vinyl)benzyl)piperidine-2-carboxylic acid] | 6.5 nM
13 | Cc1cc(CN2CCOC[C@H]2C(=O)O)c(C)cc1/C=C/c1cccc(-c2ccccc2)c1C#N [Compound 11, (S,E)-4-(4-(2-(2-Cyano-[1,1′-biphenyl]-3-yl)vinyl)-2,5-dimethylbenzyl)morpholine-3-carboxylic acid] | 10.1 nM
14 | Cc1cc(/C=C/c2cccc(-c3ccccc3)c2C#N)c(Cl)cc1CN1CCCC[C@H]1C(=O)O [Compound 8, (S,E)-1-(5-Chloro-4-(2-(2-cyano-[1,1′-biphenyl]-3-yl)vinyl)-2-methylbenzyl)piperidine-2-carboxylic acid] | 1.6 nM
15 | CS(=O)(=O)CCCOc1cc(/C=C/c2cccc(-c3ccccc3)c2C#N)c(CN2CCCC[C@H]2C(=O)O)cc1Cl [Compound 36] | > 10000 nM
16 | Cc1ccc(OCCCCC#N)c(CN2CCOC[C@H]2C(=O)O)c1/C=C/c1cccc(-c2ccccc2)c1C#N [Compound 46, (S,E)-4-(2-(2-(2-Cyano-[1,1′-biphenyl]-3-yl)vinyl)-6-(4-cyanobutoxy)-3-methylbenzyl)morpholine-3-carboxylic acid] | > 10000 nM
17 | COCCOc1cc(/C=C/c2cccc(-c3ccccc3)c2C#N)c(C)cc1CN1CCCC[C@H]1C(=O)O [Compound 24, (S,E)-1-(4-(2-(2-Cyano-[1,1′-biphenyl]-3-yl)vinyl)-2-(2-methoxyethoxy)-5-methylbenzyl)piperidine-2-carboxylic acid] | 6.8 nM
18 | COCCOc1cc(/C=C/c2cccc(-c3ccccc3)c2C#N)c(CN2CCOC[C@H]2C(=O)O)cc1Cl [Compound 34, (S,E)-4-(5-Chloro-2-(2-(2-cyano-[1,1′-biphenyl]-3-yl)vinyl)-4-(2-methoxyethoxy)benzyl)morpholine-3-carboxylic acid] | > 10000 nM
19 | Cc1cc(OCCO)c(CN2CCOC[C@H]2C(=O)O)cc1/C=C/c1cccc(-c2ccccc2)c1C#N [Compound 42, (S,E)-4-(5-(2-(2-Cyano-[1,1′-biphenyl]-3-yl)vinyl)-2-(2-hydroxyethoxy)-4-methylbenzyl)morpholine-3-carboxylic acid] | 706 nM
20 | Cc1cc(/C=C/c2cccc(-c3ccccc3)c2C)c(Cl)cc1CN1CCNC[C@H]1C(=O)O [Compound 23, (S,E)-1-(5-Chloro-2-methyl-4-(2-(2-methyl-[1,1′-biphenyl]-3-yl)vinyl)benzyl)piperazine-2-carboxylic acid] | 186 nM
21 | COCCOc1cc(C)c(/C=C/c2cccc(-c3ccccc3)c2C#N)cc1CN1CCCC[C@H]1C(=O)O [Compound 43, (S,E)-1-(5-(2-(2-Cyano-[1,1′-biphenyl]-3-yl)vinyl)-2-(2-methoxyethoxy)-4-methylbenzyl)piperidine-2-carboxylic acid] | 83.9 nM
22 | Cc1c(/C=C/c2ccc(CN3CCCC[C@H]3C(=O)O)cc2C(F)(F)F)cccc1-c1ccccc1 [Compound 4, (S,E)-1-(4-(2-(2-Methyl-[1,1′-biphenyl]-3-yl)vinyl)-3-trifluoromethylbenzyl)piperidine-2-carboxylic acid] | 10.7 nM
23 | Cc1ccc(OCCCCC#N)c(CN2CCCC[C@H]2C(=O)O)c1/C=C/c1cccc(-c2ccccc2)c1C#N [Compound 45, (S,E)-1-(2-(2-(2-Cyano-[1,1′-biphenyl]-3-yl)vinyl)-6-(4-cyanobutoxy)-3-methylbenzyl)piperidine-2-carboxylic acid] | > 10000 nM
24 | Cc1cc(/C=C/c2cccc(-c3ccccc3)c2C#N)c(Cl)cc1CNCC(=O)O [Compound 19, (E)-(5-Chloro-4-(2-(2-cyano-[1,1′-biphenyl]-3-yl)vinyl)-2-methylbenzyl)glycine] | 6.2 nM
25 | Cc1c(/C=C/c2cc(OCCCCF)c(CN3CCCC[C@H]3C(=O)O)cc2C(F)(F)F)cccc1-c1ccccc1 [Compound 85, (S,E)-1-(2-(4-Fluorobutoxy)-4-(2-(2-methyl-[1,1′-biphenyl]-3-yl)vinyl)-5-(trifluoromethyl)benzyl)piperidine-2-carboxylic acid] | 4.34 nM
26 | Cc1cc(CN2CCCC[C@H]2C(=O)O)c(C)cc1/C=C/c1cccc(-c2ccccc2)c1C#N [Compound 10] | 4.2 nM
27 | Cc1cc(OCCO)c(CN2CCCC[C@H]2C(=O)O)cc1/C=C/c1cccc(-c2ccccc2)c1C#N [Compound 41, (S,E)-1-(5-(2-(2-Cyano-[1,1′-biphenyl]-3-yl)vinyl)-2-(2-hydroxyethoxy)-4-methylbenzyl)piperidine-2-carboxylic acid] | 281 nM
28 | Cc1cc(CN2CCOC[C@H]2C(=O)O)c(OCCCCC#N)cc1/C=C/c1cccc(-c2ccccc2)c1C#N [Compound 17, (S,E)-4-(4-(2-(2-Cyano-[1,1′-biphenyl]-3-yl)vinyl)-2-(4-cyanobutoxy)-5-methylbenzyl)morpholine-3-carboxylic acid] | 4.4 nM
29 | Cc1cc(CN2CCCC[C@H]2C(=O)O)c(OCCCCC#N)cc1/C=C/c1cccc(-c2ccccc2)c1C#N [Compound 15, (S,E)-1-(4-(2-(2-Cyano-[1,1′-biphenyl]-3-yl)vinyl)-2-(4-cyanobutoxy)-5-methylbenzyl)piperidine-2-carboxylic acid] | 2.1 nM
30 | Cc1cc(/C=C/c2cccc(-c3ccccc3)c2C#N)c(Cl)cc1CN1CCOC[C@H]1C(=O)O [Compound 9, (S,E)-4-(5-Chloro-4-(2-(2-cyano-[1,1′-biphenyl]-3-yl)vinyl)-2-methylbenzyl)morpholine-3-carboxylic acid] | 25.8 nM
31 | Cc1cc(CN[C@@](C)(CO)C(=O)O)c(C)cc1/C=C/c1cccc(-c2ccccc2)c1C#N [Compound 12, (S,E)-2-((4-(2-(2-Cyano-[1,1′-biphenyl]-3-yl)vinyl)-2,5-dimethylbenzyl)amino)-3-hydroxy-2-methylpropionic acid] | 3.4 nM
